Measurements as given in patent US12077503B2, “Substituted cyclic amides and their use as herbicides” (FMC CORPORATION, priority 2015, dated 2024).

Legend:
Assay type in all cases: in vivo
[1] = test system: giant foxtail (Setaria faberii); test: Test A postemergence; conditions: Setaria faberi, post-emergence, 240 h, Postemergence
In short: (§1)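 In a loam soil and sand blend, planted seeds got a preemergence directed soil spray, and young plants at the one- to two-leaf stage, 2–10 cm high, got a postemergence application; ~10 d greenhouse hold; injury rated visually, 0 = none, 100 = complete control.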

corn (Zea mays) = test: Test A postemergence; conditions: Zea mays, post-emergence, 240 h, Postemergence
In short: as §1

[2] = test system: barnyardgrass (Echinochloa crus-galli); test: Test A postemergence; conditions: Echinochloa crus-galli, post-emergence, 240 h, Postemergence
In short: as §1

Kochia (Kochia scoparia) [3] = test: Test A postemergence; conditions: Bassia scoparia, post-emergence, 240 h, Postemergence
In short: as §1

[4] = test system: pigweed (Amaranthus retroflexus); test: Test A postemergence; conditions: Amaranthus retroflexus, post-emergence, 240 h, Postemergence
In short: as §1

[5] = test system: wheat (Triticum aestivum); test: Test A postemergence; conditions: Triticum aestivum, post-emergence, 240 h, Postemergence
In short: as §1

[6] = test system: ryegrass, Italian (Italian ryegrass, Lolium multiflorum); test: Test A postemergence; conditions: Lolium multiflorum, post-emergence, 240 h, Postemergence
In short: as §1

[7] = test system: ragweed (common ragweed, Ambrosia elatior); test: Test A postemergence; conditions: Ambrosia artemisiifolia, post-emergence, 240 h, Postemergence
In short: as §1

[8] = test system: Galium (catchweed bedstraw, Galium aparine); test: Test A postemergence; conditions: Galium, post-emergence, 240 h, Postemergence
In short: as §1

[9] = test system: blackgrass (Alopecurus myosuroides); test: Test A postemergence; conditions: Alopecurus myosuroides, post-emergence, 240 h, Postemergence
In short: as §1

[10] = test system: giant foxtail (Setaria faberii); test: Test A preemergence; conditions: Setaria faberi, pre-emergence, 240 h, preemergence, 0 to 100 scale where 0 is no effect and 100 is complete control, read-out: Foxtail, Giant plant response rating
In short: as §1

[11] = test system: barnyardgrass (Echinochloa crus-galli); test: Test A preemergence; conditions: Echinochloa crus-galli, pre-emergence, 240 h, preemergence, 0 to 100 scale where 0 is no effect and 100 is complete control, read-out: Barnyardgrass plant response rating
In short: as §1

Kochia (Kochia scoparia) [12] = test: Test A preemergence; conditions: Bassia scoparia, pre-emergence, 240 h, preemergence, 0 to 100 scale where 0 is no effect and 100 is complete control, read-out: Kochia plant response rating
In short: as §1

[13] = test system: pigweed (Amaranthus retroflexus); test: Test A preemergence; conditions: Amaranthus retroflexus, pre-emergence, 240 h, preemergence, 0 to 100 scale where 0 is no effect and 100 is complete control, read-out: Pigweed plant response rating
[14] = test system: ryegrass, Italian (Italian ryegrass, Lolium multiflorum); test: Test A preemergence; conditions: Lolium multiflorum, pre-emergence, 240 h, preemergence, 0 to 100 scale where 0 is no effect and 100 is complete control, read-out: Ryegrass, Italian plant response rating
In short: as §1

[15] = test system: ragweed (common ragweed, Ambrosia elatior); test: Test A preemergence; conditions: Ambrosia artemisiifolia, pre-emergence, 240 h, preemergence, 0 to 100 scale where 0 is no effect and 100 is complete control, read-out: Ragweed plant response rating
In short: as §1

[16] = 125 g ai/ha, visual injury rating, approximately 10 d

**Q.** How did the pest or weed control at 125 g/ha ([1]; 125 g ai/ha, visual rating about 10 d after treatment, read-out: Foxtail, Giant plant response rating (0 to 100 scale)) turn out when `Cc1nc([C@H]2CN(C)C(=O)[C@@H]2C(=O)Nc2ccccc2F)cs1` [Compound 1280] was run?
**A.** 0%

**Q.** What about the pest or weed control at 500 g/ha ([1]; 500 g ai/ha, visual injury, 0 to 100 scale (0 no effect, 100 complete control), approx. 10 d, read-out: Plant response rating, Foxtail, Giant) of the same compound?
**A.** 30%

**Q.** What about the plant injury at 125 g/ha (corn (Zea mays); 125 g ai/ha, visual rating about 10 d after treatment, read-out: Corn plant response rating (0 to 100 scale)) of the same compound?
**A.** 0%

**Q.** And the Corn plant response rating (crop injury, 0 = no effect, 100 = complete kill) at 500 g/ha (corn (Zea mays); 500 g ai/ha, visual injury, 0 to 100 scale (0 no effect, 100 complete control), approx. 10 d)?
**A.** 0%

**Q.** And the pest or weed control at 125 g/ha ([2]; 125 g ai/ha, visual rating about 10 d after treatment, read-out: Barnyardgrass plant response rating (0 to 100 scale, 0 no effect, 100 complete control))?
**A.** 0%

**Q.** What about the pest or weed control at 500 g/ha ([2]; 500 g ai/ha, visual injury, 0 to 100 scale (0 no effect, 100 complete control), approx. 10 d, read-out: Plant response rating, Barnyardgrass) of the same compound?
**A.** 40%

**Q.** And the pest or weed control at 125 g/ha (Kochia (Kochia scoparia) [3]; 125 g ai/ha, visual rating about 10 d after treatment, read-out: Kochia plant response rating (0 to 100 scale))?
**A.** 0%

**Q.** What about the pest or weed control at 500 g/ha (Kochia (Kochia scoparia) [3]; 500 g ai/ha, visual injury, 0 to 100 scale (0 no effect, 100 complete control), approx. 10 d, read-out: Plant response rating, Kochia) of the same compound?
**A.** 0%

**Q.** What about the pest or weed control at 125 g/ha ([4]; 125 g ai/ha, visual rating about 10 d after treatment, read-out: Pigweed plant response rating (0 to 100 scale)) of the same compound?
**A.** 0%

**Q.** And the pest or weed control at 500 g/ha ([4]; 500 g ai/ha, visual injury, 0 to 100 scale (0 no effect, 100 complete control), approx. 10 d, read-out: Plant response rating, Pigweed)?
**A.** 0%

**Q.** And the plant injury at 125 g/ha ([5]; 125 g ai/ha, visual rating about 10 d after treatment, read-out: Wheat plant response rating (0 to 100 scale))?
**A.** 0%

**Q.** And the plant injury at 500 g/ha ([5]; 500 g ai/ha, visual injury, 0 to 100 scale (0 no effect, 100 complete control), approx. 10 d, read-out: Plant response rating, Wheat)?
**A.** 0%

**Q.** And the pest or weed control at 125 g/ha ([6]; 125 g ai/ha, visual rating about 10 d after treatment, read-out: Ryegrass, Italian plant response rating (0 to 100 scale))?
**A.** 0%

**Q.** What about the pest or weed control at 500 g/ha ([6]; 500 g ai/ha, visual injury, 0 to 100 scale (0 no effect, 100 complete control), approx. 10 d, read-out: Plant response rating, Ryegrass, Italian) of the same compound?
**A.** 0%

**Q.** What about the pest or weed control at 125 g/ha ([7]; 125 g ai/ha, visual rating about 10 d after treatment, read-out: Ragweed plant response rating (0 to 100 scale)) of the same compound?
**A.** 0%

**Q.** And the pest or weed control at 500 g/ha ([7]; 500 g ai/ha, visual injury, 0 to 100 scale (0 no effect, 100 complete control), approx. 10 d, read-out: Plant response rating, Ragweed)?
**A.** 0%

**Q.** What about the pest or weed control at 125 g/ha ([8]; 125 g ai/ha, visual rating about 10 d after treatment, read-out: Galium plant response rating (0 to 100 scale)) of the same compound?
**A.** 0%

**Q.** And the pest or weed control at 500 g/ha ([8]; 500 g ai/ha, visual injury, 0 to 100 scale (0 no effect, 100 complete control), approx. 10 d, read-out: Plant response rating, Galium)?
**A.** 0%

**Q.** And the pest or weed control at 125 g/ha ([9]; 125 g ai/ha, visual rating about 10 d after treatment, read-out: Blackgrass plant response rating (0 to 100 scale))?
**A.** 0%

**Q.** What about the pest or weed control at 500 g/ha ([9]; 500 g ai/ha, visual injury, 0 to 100 scale (0 no effect, 100 complete control), approx. 10 d, read-out: Plant response rating, Blackgrass) of the same compound?
**A.** 0%

**Q.** And the pest or weed control at 125 g/ha [10, 16]?
**A.** 0%

**Q.** What about the pest or weed control at 500 g/ha ([10]; 500 g ai/ha) of the same compound?
**A.** 80%

**Q.** What about the pest or weed control at 125 g/ha [11, 16] of the same compound?
**A.** 0%

**Q.** And the pest or weed control at 500 g/ha ([11]; 500 g ai/ha)?
**A.** 50%

**Q.** And the pest or weed control at 125 g/ha (Kochia (Kochia scoparia) [12]; [16])?
**A.** 0%

**Q.** And the pest or weed control at 500 g/ha (Kochia (Kochia scoparia) [12]; 500 g ai/ha)?
**A.** 0%

**Q.** What about the pest or weed control at 125 g/ha [13, 16] of the same compound?
**A.** 0%

**Q.** What about the pest or weed control at 500 g/ha ([13]; 500 g ai/ha) of the same compound?
**A.** 30%

**Q.** What about the pest or weed control at 125 g/ha [14, 16] of the same compound?
**A.** 0%

**Q.** What about the pest or weed control at 500 g/ha ([14]; 500 g ai/ha) of the same compound?
**A.** 0%

**Q.** What about the pest or weed control at 125 g/ha [15, 16] of the same compound?
**A.** 0%

**Q.** What about the pest or weed control at 500 g/ha ([15]; 500 g ai/ha) of the same compound?
**A.** 0%
